Results published in US11813264B2, “PAR1 modulation to alter myelination” (Mayo Foundation for Medical Education and Research, priority 2014, dated 2023).

System: Erk1/2 phosphorylation
Assay: Klk6-PAR signaling assay, Erk1/2 phosphorylation by Western blot in Oli-neu
Assay type: cell-based, mouse
Conditions: treatment alone; Klk6 10 minutes
Description: Klk6-PAR signaling assays: To examine the ability of Klk6 to mediate PAR-dependent signaling in oligodendrocytes, Oli-neu oligodendroglia (3.5×10^5 cells/well in six-well plates) were treated with Klk6 (150 nM) for 10 min, followed by protein harvest. Cell lysates were analyzed for phosphorylated or nonphosphorylated Erk1/2 by Western blot. In experiments to determine the role of PARs in Klk6 signaling, Oli-neu were preincubated with the PAR1 antagonist, SCH79797 dihydrochloride (50 nM, Tocris Biosciences, Minneapolis, MN) for 30 minutes prior to Klk6 application.
Western blot: Oli-neu lysates were obtained using a buffer containing 1% NP40, 0.5% deoxycholate, 10% glycerol, and 20 mM Tris base and separated on SDS-polyacrylamide gels prior to transfer. Membranes were blocked with 5% milk in TBS-T and incubated overnight with primary antibodies including rabbit anti-phospho-Erk1/2 (1:1,000, Cell Signaling Technology, Danvers, MA), followed with a species-appropriate horseradish peroxidase-conjugated secondary antibody (1:20,000 GE Healthcare Unlimited, UK). Signal was detected using Chemiluminescence Supersignal Pico (Pierce, Rockford, IL). Western blots were repeated three times from independent cultures, scanned, and quantified by densitometry (BioRad Quantity One 1-D Analysis Software, BioRad, Hercules, CA). Erk1/2 signal was normalized to its nonphosphorylated form. Equal loading was verified by reprobing blots for […] (Novus Biologicals, Littleton, CO).

Klk6: Recombinant murine kallikrein-related peptidase 6 expressed using a baculovirus system
Erk1/2 phosphorylation: nearly four-fold increase
